Results from PubChem BioAssay (NCI).
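In this assay, cells in 96-well plates receive the compound at five concentrations for 48 hours. Endpoints are linearly interpolated between the surrounding concentrations. GI50 marks 50% less growth. At the TGI there is no net growth.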

Assays:
Test in all cases: DTP human tumour cell line panel, 48 h
LOX IMVI melanoma = tested on: LOX IMVI melanoma
COLO 205 colon = tested on: COLO 205 colon
OVCAR-4 ovarian = tested on: OVCAR-4 ovarian
T-47D breast = tested on: T-47D breast
HOP-92 NSCLC = tested on: HOP-92 NSCLC
SK-OV-3 ovarian = tested on: SK-OV-3 ovarian
SF-295 CNS = tested on: SF-295 CNS
HCT-116 colon = tested on: HCT-116 colon
NCI/ADR-RES ovarian = tested on: NCI/ADR-RES ovarian
SW-620 colon = tested on: SW-620 colon

Row | SMILES | GI50 (LOX IMVI melanoma) | TGI (LOX IMVI melanoma) | GI50 (COLO 205 colon) | TGI (COLO 205 colon) | GI50 (OVCAR-4 ovarian) | TGI (OVCAR-4 ovarian) | GI50 (T-47D breast) | TGI (T-47D breast) | GI50 (HOP-92 NSCLC) | TGI (HOP-92 NSCLC) | GI50 (SK-OV-3 ovarian) | TGI (SK-OV-3 ovarian) | GI50 (SF-295 CNS) | TGI (SF-295 CNS) | GI50 (HCT-116 colon) | TGI (HCT-116 colon) | GI50 (NCI/ADR-RES ovarian) | TGI (NCI/ADR-RES ovarian) | GI50 (SW-620 colon) | TGI (SW-620 colon)
1 | CN(C)CCN1C(=O)c2ccccc2N(C)c2ccccc21 | > 100000 nM | > 100 µM | > 100000 nM | > 100 µM | > 100000 nM | > 100 µM | > 100000 nM | > 100 µM | > 100000 nM | > 100 µM | > 100 µM | > 100 µM | > 100000 nM | > 100 µM | > 100000 nM | > 100 µM | > 100000 nM | > 100 µM | > 100000 nM | > 100 µM
2 | C=C(C)C(=O)Nc1ccc(NC(C)C)cc1 | > 100000 nM | > 100 µM | > 100000 nM | > 100 µM | > 100000 nM | > 100 µM | > 100000 nM | > 100 µM | > 100000 nM | > 100 µM | > 100 µM | > 100 µM | > 100000 nM | > 100 µM | > 100000 nM | > 100 µM | > 100000 nM | > 100 µM | > 100000 nM | > 100 µM
3 | COc1ccc(C(=O)c2cc(OC)c(OC)c(OC)c2)cc1OC(=O)CCl | < 19.9 nM | > 100 µM | 1210 nM | 15.6 µM | 115 nM | > 100 µM | 3030 nM | 97.3 µM |  | > 100 µM | 0.163 µM | > 100 µM | 45.6 nM | > 100 µM | 20.5 nM | > 100 µM | < 16.7 nM | > 100 µM | < 20.8 nM | > 100 µM
4 | COc1cc([C@@H]2OC[C@@H]3C(c4cc(OC)c5c(c4)OCO5)OC[C@@H]32)cc(OC)c1OC (stereo not given in full) |  | > 100 µM |  | > 100 µM |  | > 100 µM |  | > 100 µM |  | > 100 µM |  | > 100 µM |  | > 100 µM |  | > 100 µM |  | > 100 µM |  | > 100 µM
5 | CC(=O)OCC1OC(n2cnc(C(N)=S)c2N)C(OC(C)=O)C1OC(C)=O (stereo not given) |  | > 100 µM |  | > 100 µM |  | > 100 µM |  | > 100 µM |  | > 100 µM |  | > 100 µM |  | > 100 µM |  | > 100 µM |  | > 100 µM |  | > 100 µM
6 | CCC(C)(CC(C)(C)C(=O)NCC(=O)NC(Cc1ccccc1)C(=O)NC(Cc1ccccc1)C(=O)NCC(=O)NC1CC(OC2CC(O)(C(=O)CO)Cc3c(O)c4c(c(O)c32)C(=O)c2c(OC)cccc2C4=O)OC(C)C1O)C(=O)NCC(C)O (stereo not given) | 35.2 µg/mL | > 150 µg/mL | 102 µg/mL | > 150 µg/mL | > 150 µg/mL | > 150 µg/mL | 70.3 µg/mL | > 150 µg/mL | > 150 µg/mL | > 150 µg/mL | > 150 µg/mL | > 150 µg/mL | 75.9 µg/mL | > 150 µg/mL | 55.3 µg/mL | > 150 µg/mL | > 150 µg/mL | > 150 µg/mL | 131 µg/mL | > 150 µg/mL
7 | CC/C=C1/C(=O)C=C[C@@H]1C/C=C\CCCC(=O)OC | 505 nM | 1.91 µM | 2400 nM | 5.18 µM | 5240 nM | 18 µM | 3790 nM | 16.7 µM | 12100 nM | 25.1 µM | 7.15 µM | 19.5 µM | 2600 nM | 6.76 µM | 447 nM | 2.4 µM | 2880 nM | 14.5 µM |  | 
8 | Cc1ccc(S(=O)(=O)N/N=C/c2c(O)ccc3ccccc23)cc1 |  | > 100 µM |  | 37.4 µM |  | 84.3 µM |  | > 100 µM |  |  |  | 84.6 µM |  | 57.5 µM |  | 45.6 µM |  | > 100 µM |  | > 100 µM
9 | C[C@H]1[C@H](C)CC[C@]2(CO)CC[C@]3(C)C(=CC[C@@H]4[C@@]5(C)CCCNC(C)(C)[C@@H]5CC[C@]43C)[C@H]12 | 1590 nM | 3.05 µM | 1740 nM | 3.46 µM |  |  | 1680 nM | 4.03 µM | 1520 nM | 3.19 µM | 2.54 µM | 6.97 µM | 1640 nM | 3.06 µM | 1490 nM | 2.81 µM | 1760 nM | 3.47 µM | 1790 nM | 3.54 µM
10 | c1ccc2[nH]c(-c3ccc(-c4nccc5c4[nH]c4ccccc45)cc3)nc2c1 |  |  | 2320 nM | 6.22 µM | 2270 nM | 7.75 µM | 2020 nM | 6.19 µM | 2060 nM | 5.79 µM | 4.37 µM | 15.9 µM | 1920 nM | 4 µM | 2830 nM | 10.4 µM | 3500 nM | 15.2 µM | 2790 nM | 8.48 µM
11 | FC(F)(F)c1ccc(Nc2nc(-c3c(C(F)(F)F)nc4ccccn34)cs2)cc1 | 53.3 nM | 7.95 µM | 32.3 nM | 0.167 µM | 1220 nM | 15.6 µM | 45.3 nM | 9.07 µM |  |  | 0.0491 µM | 5.03 µM | 33 nM | 1.28 µM | 42.6 nM | 2.38 µM | 35 nM | 2.07 µM | 37.3 nM | 12.3 µM
12 | O=C(O)CNC(=O)c1ccc(-c2ccccc2)cc1 |  | > 100 µM |  | > 100 µM |  |  |  | > 100 µM |  | > 100 µM |  | > 100 µM |  | > 100 µM |  | > 100 µM |  | > 100 µM |  | > 100 µM
13 | COc1ccc(-c2nc(-c3nc4ccc(OC)cc4[nH]3)c3ccccn23)cc1 | 4800 nM | 26 µM | 7190 nM | 39.7 µM | 4530 nM | > 100 µM | 2700 nM | 9.75 µM | 2310 nM | 8.4 µM | 36.1 µM | > 100 µM |  |  | 3630 nM | 13.1 µM | 3860 nM | 57.7 µM | 4260 nM | > 100 µM
14 | CN(CCCn1c2c(c3ccccc3c1=O)C(=O)c1ccccc1-2)CCCn1c2c(c3ccccc3c1=O)C(=O)c1ccccc1-2 |  |  | 1640 nM | > 45.7 µM | 2260 nM | > 100 µM | 259 nM | 18.3 µM | 67.1 nM | 1.9 µM | 5.45 µM | 19.7 µM | 122 nM | 9.5 µM | 13.3 nM | 0.37 µM | 1050 nM | 4.32 µM | 188 nM | > 100 µM
